Experimental data published in patent US8476064B2, “Inhibition assay method and device for detection of antibiotics” (Charm Sciences, Inc., priority 2006, dated 2013).

Columns and labels:
B.st. spores [1] = assay: Antibiotic detection test in spiked milk, borate/succinate culture of Example 6 (Table 4); type: cell-based, Bacillus (Geobacillus) Stearothermophilus; parameters: key to Color 1 / Color 2: Color result 1 and 2 is a negative result; Color result 1 and 2 is a negative result; 3 is a borderline result; 4 and 5 is a positive result; 4 and 5 is a positive result; conditions: for % Pos (Color 2) / Color 2: after 16 hours at room temperature; for % Pos (Color 1) / Color 1: immediately after test completion
Protocol: BCP/Borate/Succinate Solution was prepared by adding 3.8 grams of Borate and 6 grams Succinate to 100 mL of reverse osmosis/deionized water (RO/DI Water) in 125 mL flask. 50 milligrams of BCP was added to a 50 mL conical tube and 5 mL of Borate/Succinate solution was added to the 50 milligrams BCP and mixed.
To prepare media 5 grams glucose and 1 gram Mueller Hinton Broth was dissolved in 100 mL RO/DI Water. 1.2 mL of a 0.01 mg/mL solution of trimethoprim in RO/DI Water was prepared and added to the media. A 20 mL of BCP/Borate/Succinate was added to the media and the media was sterile filtered through a 0.45 micron filter and then cooled to 4 degrees C.
Agar was prepared by combining 0.3 grams Difco Bacto-Agar (Item #0140-01), 0.225 NaCl and 17.485 RO/DI Water. The mixture was heated to 95° C. and then removed from the heat and allowed to cool to 75° C. Next 6 mL of media (prepared as described above with BCP/Tris) was added to the agar and mixed for 5 minutes. The mixture was cooled to 57° C. and 1 mL spore solution (concentration of 1 billion cfu/mL) was added and mixed together for 5 minutes. 0.200 mL was dispensed into the bottom of each of the vials.
In test operation 200 microliters of various milk sample, spiked with known concentrations of antibiotics, were pipetted into test vials and incubated for the prescribed time (in this test 2 hours 10 minutes) and prescribed temperature (64 degrees C.+/−2 degrees C.). Incubation was in the Charm I Inctronic incubator. Results were recorded immediately after test completion (Color 1) and after being left at room temperature for 16 hours (Color 2). Results listed are in parts per billion (ppb). 4 samples were run at each concentrations except for raw negative milk (16 samples) and 3 ppb pen G (2 samples) and amoxicillin (2 samples). Abbreviations are penicillin G (PenG); sulfamethazine (SMZ); sulfadimethoxine (SDM); tylosin (TY); gentamicin (G); oxytetracycline (OT); pirlimycin (Pirl); amoxicillin (Amox); ampicillin (Amp); cloxacillin (Clox); ceftiofur sodium (Ceft); cephaprin (Ceph); tilmicosin (Til); sulfadoxine (SDN); neomycin (Neo). Color result 1 and 2 is a negative result, 3 is a borderline result and 4 and 5 is a positive result.

B.st. spores [2] = assay: Antibiotic detection test in spiked milk, Trizma/succinate culture of Example 7 (Table 5); type: cell-based, Bacillus (Geobacillus) Stearothermophilus; conditions: for 16 hr Result / % Pos (16 hr Result): 16 hours later; for % Pos (Result) / Result: immediately after test completion
Protocol: A Trizma/Succinate solution was prepared by adding 2.5 grams Trizma Base and 6 grams Succinate to 100 mL of reverse osmosis/deionized water (RO/DI Water) in a 125 mL flask. 40 milligrams of BCP (see example 1 for BCP preparation) was then added to a 50 mL conical tube and 25 mL of the Trizma/Succinate solution was added to the 40 milligrams BCP and mixed.
The media was prepared by dissolving 5 grams glucose and 1 gram Mueller Hinton Broth in 100 mL RO/DI Water. 1.2 mL of a 0.01 mg/mL solution of trimethoprim in RO/DI water was added to the media. 20 mL of the BCP/Trizma/Succinate preparation was added to the media and the media was sterile filtered through a 0.45 micron filter and cooled to 4 degrees C.
0.3 grams Difco Bacto-Agar (Item #0140-01), 0.225 NaCl and 17 mL of RO/DI water was combined and mixed and heated the mixture to 95° C. The mixture was removed from the heat and allowed it to cool to 75° C. and then 6 mL media (with BCP/Tris) was added and mixed for 5 minutes. The mixture was cooled to 57° C. and 2 mL spore (concentration of 1 billion cfu/mL) was added and mixed for 5 minutes. 0.200 mL was dispensed into the bottom of each vial.
In test operation 200 microliters of various milk samples, spiked with known concentrations of antibiotics, were pipetted into vials and incubated for the prescribed time (in this test 2 hours 30 minutes) and prescribed temperature (64 degrees C.+/−2 degrees C.). Results were recorded immediately after test completion and 16 hours later. Incubation was in various Charm Inctronic I incubators. Concentrations listed are in parts per billion (ppb). 4 samples were run at each concentration except 16 negative samples were run and 2 samples each for 3 ppb pen G and amoxicillin. Abbreviations are pencillin G (PenG); sulfamethazine (SMZ); sulfadimethoxine (SDM); tylosin (TY); gentamicin (G); oxytetracycline (OT); pirlimycin (Pirl); amoxicillin (Amox); ampicillin (Amp); cloxacillin (Clox); ceftiofur sodium (Ceft); cephaprin (Ceph); tilmicosin (Til); sulfadoxine (SDN); neomycin (Neo).

CC1(C)S[C@@H]2[C@H](NC(=O)[C@H](N)c3ccc(O)cc3)C(=O)N2[C@H]1C(=O)O [Amox, amoxicillin]
% Pos (Color 2) (B.st. spores [1]; milk spiked at 6 ppb): 100%
Color 2 (B.st. spores [1]; milk spiked at 6 ppb): 5
% Pos (Color 1) (B.st. spores [1]; milk spiked at 6 ppb): 100%
Color 1 (B.st. spores [1]; milk spiked at 6 ppb): 5
16 hr Result (B.st. spores [2]; milk spiked at 6 ppb): Pos
% Pos (16 hr Result) (B.st. spores [2]; milk spiked at 6 ppb): 100%
% Pos (Result) (B.st. spores [2]; milk spiked at 6 ppb): 100%
Result (B.st. spores [2]; milk spiked at 6 ppb): Pos

CC(=O)OCC1=C(C(=O)O)N2C(=O)[C@@H](NC(=O)CSc3ccncc3)[C@H]2SC1 [Ceph, cephaprin]
% Pos (Color 2) (B.st. spores [1]; milk spiked at 10 ppb): 100%
Color 2 (B.st. spores [1]; milk spiked at 10 ppb): 5
% Pos (Color 1) (B.st. spores [1]; milk spiked at 10 ppb): 100%
Color 1 (B.st. spores [1]; milk spiked at 10 ppb): 5
16 hr Result (B.st. spores [2]; milk spiked at 10 ppb): Pos
% Pos (16 hr Result) (B.st. spores [2]; milk spiked at 10 ppb): 100%
% Pos (Result) (B.st. spores [2]; milk spiked at 10 ppb): 100%
Result (B.st. spores [2]; milk spiked at 10 ppb): Pos

Cc1onc(-c2ccccc2Cl)c1C(=O)N[C@@H]1C(=O)N2[C@@H]1SC(C)(C)[C@@H]2C(=O)O [Clox, cloxacillin]
% Pos (Color 2) (B.st. spores [1]; milk spiked at 30 ppb): 100%
Color 2 (B.st. spores [1]; milk spiked at 30 ppb): 5
% Pos (Color 1) (B.st. spores [1]; milk spiked at 30 ppb): 100%
Color 1 (B.st. spores [1]; milk spiked at 30 ppb): 4
% Pos (Color 2) (B.st. spores [1]; milk spiked at 50 ppb): 100%
Color 2 (B.st. spores [1]; milk spiked at 50 ppb): 5
% Pos (Color 1) (B.st. spores [1]; milk spiked at 50 ppb): 100%
Color 1 (B.st. spores [1]; milk spiked at 50 ppb): 5
16 hr Result (B.st. spores [2]; milk spiked at 30 ppb): Pos
% Pos (16 hr Result) (B.st. spores [2]; milk spiked at 30 ppb): 100%
% Pos (Result) (B.st. spores [2]; milk spiked at 30 ppb): 100%
Result (B.st. spores [2]; milk spiked at 30 ppb): Pos
16 hr Result (B.st. spores [2]; milk spiked at 50 ppb): Pos
% Pos (16 hr Result) (B.st. spores [2]; milk spiked at 50 ppb): 100%
% Pos (Result) (B.st. spores [2]; milk spiked at 50 ppb): 100%
Result (B.st. spores [2]; milk spiked at 50 ppb): Pos

CC[C@H]1OC(=O)C[C@@H](O)[C@H](C)[C@@H](O[C@@H]2O[C@H](C)[C@@H](O)[C@H](N(C)C)[C@H]2O)[C@@H](CCN2C[C@H](C)C[C@H](C)C2)C[C@@H](C)C(=O)/C=C/C(C)=C/[C@@H]1CO[C@@H]1O[C@H](C)[C@@H](O)[C@@H](OC)[C@H]1OC [Til, tilmicosin]
% Pos (Color 2) (B.st. spores [1]; milk spiked at 80 ppb): 100%
Color 2 (B.st. spores [1]; milk spiked at 80 ppb): 5
% Pos (Color 1) (B.st. spores [1]; milk spiked at 80 ppb): 100%
Color 1 (B.st. spores [1]; milk spiked at 80 ppb): 5
16 hr Result (B.st. spores [2]; milk spiked at 80 ppb): Pos
% Pos (16 hr Result) (B.st. spores [2]; milk spiked at 80 ppb): 100%
% Pos (Result) (B.st. spores [2]; milk spiked at 80 ppb): 100%
Result (B.st. spores [2]; milk spiked at 80 ppb): Pos

CC1(C)S[C@@H]2[C@H](NC(=O)[C@H](N)c3ccccc3)C(=O)N2[C@H]1C(=O)O [Amp, ampicillin]
% Pos (Color 2) (B.st. spores [1]; milk spiked at 5 ppb): 100%
Color 2 (B.st. spores [1]; milk spiked at 5 ppb): 4
% Pos (Color 1) (B.st. spores [1]; milk spiked at 5 ppb): 100%
Color 1 (B.st. spores [1]; milk spiked at 5 ppb): 5
16 hr Result (B.st. spores [2]; milk spiked at 5 ppb): Pos
% Pos (16 hr Result) (B.st. spores [2]; milk spiked at 5 ppb): 100%
% Pos (Result) (B.st. spores [2]; milk spiked at 5 ppb): 100%
Result (B.st. spores [2]; milk spiked at 5 ppb): Pos

CO/N=C(\C(=O)N[C@@H]1C(=O)N2C(C(=O)O)=C(CSC(=O)c3ccco3)CS[C@H]12)c1csc(N)n1 [Ceft, ceftiofur sodium]
% Pos (Color 2) (B.st. spores [1]; milk spiked at 50 ppb): 0%
Color 2 (B.st. spores [1]; milk spiked at 50 ppb): 1
% Pos (Color 1) (B.st. spores [1]; milk spiked at 50 ppb): 0%
Color 1 (B.st. spores [1]; milk spiked at 50 ppb): 1
% Pos (Color 2) (B.st. spores [1]; milk spiked at 100 ppb): 0%
Color 2 (B.st. spores [1]; milk spiked at 100 ppb): 2
% Pos (Color 1) (B.st. spores [1]; milk spiked at 100 ppb): 0%
Color 1 (B.st. spores [1]; milk spiked at 100 ppb): 2
16 hr Result (B.st. spores [2]; milk spiked at 50 ppb): Pos
% Pos (16 hr Result) (B.st. spores [2]; milk spiked at 50 ppb): 100%
% Pos (Result) (B.st. spores [2]; milk spiked at 50 ppb): 100%
Result (B.st. spores [2]; milk spiked at 50 ppb): Pos
16 hr Result (B.st. spores [2]; milk spiked at 100 ppb): Pos
% Pos (16 hr Result) (B.st. spores [2]; milk spiked at 100 ppb): 100%
% Pos (Result) (B.st. spores [2]; milk spiked at 100 ppb): 100%
Result (B.st. spores [2]; milk spiked at 100 ppb): Pos

COc1ncnc(NS(=O)(=O)c2ccc(N)cc2)c1OC [SDN, sulfadoxine]
% Pos (Color 2) (B.st. spores [1]; milk spiked at 100 ppb): 100%
Color 2 (B.st. spores [1]; milk spiked at 100 ppb): 4
% Pos (Color 1) (B.st. spores [1]; milk spiked at 100 ppb): 100%
Color 1 (B.st. spores [1]; milk spiked at 100 ppb): 5
16 hr Result (B.st. spores [2]; milk spiked at 100 ppb): Pos
% Pos (16 hr Result) (B.st. spores [2]; milk spiked at 100 ppb): 100%
% Pos (Result) (B.st. spores [2]; milk spiked at 100 ppb): 100%
Result (B.st. spores [2]; milk spiked at 100 ppb): Pos

NC[C@@H]1O[C@H](O[C@H]2[C@@H](O)[C@H](O[C@@H]3[C@@H](O)[C@H](N)C[C@H](N)[C@H]3O[C@H]3O[C@H](CN)[C@@H](O)[C@H](O)[C@H]3N)O[C@@H]2CO)[C@H](N)[C@@H](O)[C@@H]1O [Neo, neomycin]
% Pos (Color 2) (B.st. spores [1]; milk spiked at 750 ppb): 100%
Color 2 (B.st. spores [1]; milk spiked at 750 ppb): 5
% Pos (Color 1) (B.st. spores [1]; milk spiked at 750 ppb): 100%
Color 1 (B.st. spores [1]; milk spiked at 750 ppb): 5
16 hr Result (B.st. spores [2]; milk spiked at 750 ppb): Pos
% Pos (16 hr Result) (B.st. spores [2]; milk spiked at 750 ppb): 100%
% Pos (Result) (B.st. spores [2]; milk spiked at 750 ppb): 100%
Result (B.st. spores [2]; milk spiked at 750 ppb): Pos

CC[C@@H]1CCN[C@H](C(=O)N[C@@H]([C@H]2O[C@H](SC)[C@H](O)[C@@H](O)[C@H]2O)[C@H](C)Cl)C1 [Pirl, pirlimycin]
% Pos (Color 2) (B.st. spores [1]; milk spiked at 100 ppb): 100%
Color 2 (B.st. spores [1]; milk spiked at 100 ppb): 4
% Pos (Color 1) (B.st. spores [1]; milk spiked at 100 ppb): 100%
Color 1 (B.st. spores [1]; milk spiked at 100 ppb): 4
% Pos (Color 2) (B.st. spores [1]; milk spiked at 200 ppb): 100%
Color 2 (B.st. spores [1]; milk spiked at 200 ppb): 5
% Pos (Color 1) (B.st. spores [1]; milk spiked at 200 ppb): 100%
Color 1 (B.st. spores [1]; milk spiked at 200 ppb): 5
16 hr Result (B.st. spores [2]; milk spiked at 100 ppb): Pos
% Pos (16 hr Result) (B.st. spores [2]; milk spiked at 100 ppb): 100%
% Pos (Result) (B.st. spores [2]; milk spiked at 100 ppb): 100%
Result (B.st. spores [2]; milk spiked at 100 ppb): Pos
16 hr Result (B.st. spores [2]; milk spiked at 200 ppb): Pos
% Pos (16 hr Result) (B.st. spores [2]; milk spiked at 200 ppb): 100%
% Pos (Result) (B.st. spores [2]; milk spiked at 200 ppb): 100%
Result (B.st. spores [2]; milk spiked at 200 ppb): Pos
